According to patent US20240216395A1, “19-NOR C3,3-DISUBSTITUTED C21 -N-PYRAZOLYL STEROID FOR USE IN TREATING MAJOR DEPRESSIVE DISORDER AND […]” (priority 2021, published 2024):

How the values were obtained:
[1] = system: nondependent, recreational users of CNS depressants; test: Abuse potential main study, treatment phase: TEAEs; type: in vivo, human; conditions: treatment phase
Procedure: The main study consisted of 4 phases (FIG. 30B). The screening phase was a 1-day visit occurring within 21 days of the beginning of the qualification phase. The qualification phase was a 4-day, inpatient period to ensure participants could discriminate between alprazolam (active comparator) and placebo, and that they could tolerate the alprazolam 2-mg doses. Participants received single-oral doses of alprazolam 2 mg and placebo in a crossover manner 24 hours apart, and if they could discriminate between the two medications, they continued to the treatment phase. The treatment phase was a double-blind, active- and placebo-controlled, 6-way crossover design where participants were randomized equally to a single oral dose of 1 of 6 treatments: placebo, alprazolam (1.5 and 3 mg), and Compound (1) (30, 60, and 90 mg). The Compound (1) doses were based on the results from the first part, dose selection, and treatments were separated by 7 days. The follow-up phase was a 1-day visit occurring 7 (2) days after the treatment phase.
Safety and tolerability endpoints included the frequency and severity of AEs and SAEs, the change from baseline in clinical laboratory assessments, vital signs, and ECG, and suicidality assessed by the Columbia-Suicide Severity Rating Scale (C-SSRS).
The dose selection safety set included all participants who received 1 dose of Compound (1). The main study qualification safety set included all participants who received ≥1 dose of alprazolam. For the treatment phase, the randomized set included all participants who were randomized and the safety set included all participants who received ≥1 dose of Compound (1) or alprazolam. The completer set included all participants in the randomized set who completed all treatment periods, had sufficient data for evaluation of the primary endpoint, and had ≥1 observation within 2 hours of Tmax for each treatment for Drug Liking VAS scores. […] The PK set included all participants in the treatment phase who received 1 dose of Compound (1) and had 1 PK sample after dosing.

[2] = system: nondependent, recreational users of CNS depressants; test: Abuse potential main study, treatment phase: subjective VAS measures (Drug Liking, Overall Drug Liking, Take Drug Again, High, Good/Bad/Any Drug Effects, Alertness/Drowsiness, Drug Similarity)
[3] = Alprazolam 1.5 mg - placebo (study validity)
[4] = Alprazolam 3 mg - placebo (study validity)

Cc1nnc2n1-c1ccc(Cl)cc1C(c1ccccc1)=NC2 [Alprazolam, alprazolam, reference compound]
Back pain (TEAE) ([1]; Alprazolam 1.5 mg (n = 71)): 0 n
Confusional state (TEAE) ([1]; Alprazolam 1.5 mg (n = 71)): 0 n
Fine motor skill dysfunction (TEAE) ([1]; Alprazolam 1.5 mg (n = 71)): 0 n
Hiccups (TEAE) ([1]; Alprazolam 1.5 mg (n = 71)): 0 n
Irritability (TEAE) ([1]; Alprazolam 1.5 mg (n = 71)): 0 n
Swelling face (TEAE) ([1]; Alprazolam 1.5 mg (n = 71)): 0 n
Tremor (TEAE) ([1]; Alprazolam 1.5 mg (n = 71)): 0 n
Feeling drunk (TEAE) ([1]; Alprazolam 3 mg (n = 66)): 0 n
Fine motor skill dysfunction (TEAE) ([1]; Alprazolam 3 mg (n = 66)): 0 n
Irritability (TEAE) ([1]; Alprazolam 3 mg (n = 66)): 0 n
Swelling face (TEAE) ([1]; Alprazolam 3 mg (n = 66)): 0 n
Tremor (TEAE) ([1]; Alprazolam 3 mg (n = 66)): 0 n
Upper respiratory tract infection (TEAE) ([1]; Alprazolam 3 mg (n = 66)): 0 n
Drug Liking Emax difference ([2]; Alprazolam 1.5 mg - placebo): 22.50
Overall Drug Liking Emax difference ([2]; Alprazolam 1.5 mg - placebo): 24.00
Take Drug Again Emax difference ([2]; Alprazolam 1.5 mg - placebo): 24.00
Bad Drug Effects Emax difference [2, 3]: 0.00
Good Drug Effects Emax difference [2, 3]: 49.00
High Effects Emax difference [2, 3]: 43.80
Drug Liking Emax difference ([2]; Alprazolam 3 mg - placebo): 25.52
Overall Drug Liking Emax difference ([2]; Alprazolam 3 mg - placebo): 26.00
Take Drug Again Emax difference ([2]; Alprazolam 3 mg - placebo): 29.00
Bad Drug Effects Emax difference [2, 4]: 1.00
Good Drug Effects Emax difference [2, 4]: 53.47
High Effects Emax difference [2, 4]: 51.65
Drug Similarity: Placebo Similarity median score ([2]; all dosages, 12 hours postdose): zero
Drug Similarity: Benzodiazepines Similarity median score ([2]; alprazolam 1.5 mg): 92.5
Drug Similarity: Opioids Similarity median score ([2]; alprazolam 3 mg): 40.0
